Tests used:
U87 glioma cuboids = assay: Drug treatment of U87 glioma cuboids on the microfluidic device, SYTOX green/Hoechst cell death staining; assay type: cell-based; conditions: for cell death response, mean fluorescence ratio SG dead nuclear to Hoechst pan-nuclear: 2 days (day 1 to day 3), U87 cuboids in device
Experimental: U87 cuboids were cultured in collagen hydrogel. We prepared 80% collagen (Corning rat tail collagen type 1, 354236, 3-4 mg/mL), 10% 10×PBS, and 10% serum-free medium. We then used filtered-sterilized 1M NaOH to neutralize the pH to ˜7.2. For culture in 6 well plates, cuboids were cultured in 1 mL collagen on top of a 0.4 μm filter Transwell PFTE membrane insert (PICMORG50, Millipore) with 1.3 mL culture medium placed below. Cuboids were cultured both with and without an additional layer of pre-gelled 1 mL collagen below with similar histology and staining observed, apart from a relatively flatter shape often seen without the extra collagen layer. The culture medium contained Neurobas al-A medium (Invitrogen) with 25% heat-inactivated horse serum (Sigma), Glutamax (Invitrogen), 2× penicillin/streptomycin (Invitrogen), and growth factors (EGF 20 ng/mL and FGF 20 ng/mL, Preprotech or Invitrogen). Cisplatin (3 mM stock in dH2O, MedChem Express) was diluted in cell culture medium for the drug treatment experiment. Liver cuboids were cultured in 1 mL of collagen hydrogel on a Millipore insert with constant shaking. Culture medium was William's Medium (with L-glutamine, Invitrogen, Scotland) supplemented with 25 mM glucose (Sigma-Aldrich, USA), 30 nM insulin (ITS+premix, Zen-Bio, Inc., USA), 1 nM EGF (Preprotech), 5% Pen Strep (Sigma-Aldrich, USA), 100 nM glucagon (Sigma-Aldrich, USA). Live U87 glioma cuboids were stained for 1 hour, 37° C., with the following dyes (individually or in combination) diluted in culture medium: Cell Tracker Green CMFDA (Invitrogen, 10 μM), Cell Tracker Orange CMRA (Invitrogen, 10 μM), Hoechst (H; Invitrogen, 16 μM), and/or SYTOX green (SG; Invitrogen, 0.01 μM). […] Mean SG fluorescence was normalized to the average value of untreated cuboids. […] As a straightforward simple measure of cell viability, we measured the mean fluorescence ratio in epifluorescence images of SG dead nuclear fluorescence to Hoechst pan-nuclear fluorescence (FIG. 12B). […]

U87 glioma slices = assay: Previous experiments with U87 glioma slices on and off a microfluidic device, SG/H live viability staining; assay type: cell-based; conditions: 30 and 100 μM

N.N.[Cl][Pt][Cl] [cisplatin]
cell death response, mean fluorescence ratio SG dead nuclear to Hoechst pan-nuclear (U87 glioma cuboids; 30 μM): statistically significant response | mean increase of SG (SYTOX green dead stain) fluorescence normalized to the mean (U87 glioma cuboids; 100 μM, 2-day maximal drug treatment, used as threshold for death): 1.4 | cell death response, mean fluorescence ratio SG dead nuclear to Hoechst pan-nuclear (U87 glioma cuboids; 100 μM): showing a trend | response by SG/H live viability staining (U87 glioma slices): cell death

Source: patent US12491514B2, “Device, system, and method for trapping tissue samples” (University of Washington, priority 2019, dated 2025)
